# Several values for one entry are separate records, joined by “and”; a condition that tells them apart may be missing. Equal entries are not always repeated. Where two headings read alike, the source gives them in different places. Positions of bridges follow the written chain, without caps; N, C: chain ends. Non-standard residues stand in square brackets, D forms with d. Residues, ends and D or L forms follow the SMILES beside them. Chains are numbered I, II in the order given. Ahx = NCCCCCC(=O)O
# Assays:
# Type in all cases: cell-based
# human erythrocytes = test: Haemolytic activity; conditions: 6.25-100 μM peptide; human erythrocytes 2% haematocrit in PBS, 2 h 37°C, OD492; n = 2
# Method: Human erythrocytes collected from the blood samples of healthy humans were harvested by centrifugation for 7 min at 162 ×g and washed three times in phosphate-buffered saline (PBS). The erythrocytes (2% haematocrit in PBS) were incubated with peptide molecules at several concentrations (6.25, 12.5, 25, 50, and 100 μM), for 2 h at 37°C. PBS was used as a negative control, and sterile distilled water was used as a positive control for haemolysis (100% of haemolysis). The plate was subsequently centrifuged at 1459 ×g for 10 min at 4°C. Aliquots of the supernatants of each well (75 μL) were carefully transferred to a new sterile 96-well plate, and haemolytic activity was evaluated by measuring the OD492 using an Asys Expert Plus Microplate reader. The experiments were performed in duplicate, and peptide haemolysis activity was calculated.
# Lastly, to evaluate the effects of the peptides on normal human erythrocytes, their haemolysis activity was investigated (Figure 6). The percentage of haemolytic activity on human red blood cells after 2 hours was determined via the standard microtitre dilution method. The peptide concentration is reported as μM.
# [1] = system: Staphylococcus aureus ATCC 33591 (resistant)
# Description: (§1) All microorganisms were purchased from the American Type Culture Collection (ATCC). To determine the antibacterial activity of synthetic peptides against HCAI bacteria, the Staphylococcus aureus strains ATCC 25923 and ATCC 33591 were employed as sensitive and resistant strains, respectively, of a Gram-positive microorganisms species, and Klebsiella pneumoniae ATCC 13883 and ATCC 700603 as sensitive and resistant strains of a Gram-negative species.
# (§2) To determine the MBC, an aliquot from each well of the MIC assay was spread onto MHA. After 18 h at 37°C, the concentration that inhibited bacterial growth was determined. Each of these tests was performed four times. MBC was defined as the lowest concentration of peptide that reduced the number of bacteria by 99.9% in vitro [12].
# [2] = system: Klebsiella pneumoniae ATCC 700603 (resistant)
# Description: as §1, §2
# [3] = system: Staphylococcus aureus ATCC 25923 (sensitive)
# Description: as §1, §2
# [4] = system: Klebsiella pneumoniae ATCC 13883 (sensitive)
# Description: as §1, §2
# [5] = system: Staphylococcus aureus ATCC 33591 (resistant); remark: listed apart in the source
# Description: as §1
# (§3) The antibacterial activity assay for peptides and controls was performed according to the National Committee for Clinical Laboratory Standards method M7-A7 [11]. MIC and MBC values were determined using a broth microdilution and growth inhibition method with some modification. Briefly, MIC assays were performed by liquid inhibition growth assay in an untreated sterile 96-well flat-bottom tissue culture plate. Bacteria were cultured overnight on Mueller-Hinton agar (MHA). Three colonies were transferred to 8 mL of Mueller-Hinton broth (MHB) and incubated at 37°C until the mid-exponential phase of growth. The turbidity of the cultures was measured and adjusted spectrophotometrically to McFarland standard 0.5, then diluted to a final concentration of […]. Synthetic antibacterial peptide candidate stock solutions were diluted to final concentrations per well of 200, 100, 50, 25, 12.5, and 6.25 μM. […]
# (§4) Wells containing MHB with bacterial inoculum only served as bacterial growth controls. Additional controls included MHB alone and MHB with ciprofloxacin (CIP) (2 μg/mL) and bacteria as a positive control. The microplate was incubated for 24 h at 37°C, and growth inhibition was examined by monitoring the optical density at 620 nm (OD620). MIC was defined as the lowest peptide concentration that inhibited bacteria growth >90%.
# [6] = system: Klebsiella pneumoniae ATCC 700603 (resistant); remark: listed apart in the source
# Description: as §1, §3, §4
# [7] = system: Staphylococcus aureus ATCC 25923 (sensitive); remark: listed apart in the source
# Description: as §1, §3, §4
# [8] = system: Klebsiella pneumoniae ATCC 13883 (sensitive); remark: listed apart in the source
# Description: as §1, §3, §4
structure (smiles),measurement,setting,value
N=C(N)NCCC[C@H](NC(=O)[C@H](Cc1c[nH]c2ccccc12)NC(=O)[C@H](CCC(N)=O)NC(=O)[C@H](Cc1c[nH]c2ccccc12)NC(=O)[C@H](CCCNC(=N)N)NC(=O)[C@@H](N)CCCNC(=N)N)C(=O)NCCCC[C@H](NC(=O)[C@H](CCCNC(=N)N)NC(=O)[C@H](Cc1c[nH]c2ccccc12)NC(=O)[C@H](CCC(N)=O)NC(=O)[C@H](Cc1c[nH]c2ccccc12)NC(=O)[C@H](CCCNC(=N)N)NC(=O)[C@@H](N)CCCNC(=N)N)C(=O)NCCCCCC(N)=O [Dimeric] (I: H-RRWQWRK[Ahx]-NH2 / II: H-RRWQWR; amide I:7-II:C; N-terminus assumed),haemolysis activity over the concentrations tested,human erythrocytes,< 5%
same,MBC,"[1]; ATCC 33591, 18 h",50 µM
same,MBC,"[1]; S. aureus ATCC 33591 resistant, MHA, 18 h 37°C, 99.9% reduction",110 µg/mL
same,MBC,"[1]; S. aureus ATCC 33591 resistant, MHA, 18 h 37°C, 99.9% reduction, listed as dimeric",≥ 110 µg/mL
same,MBC,"[1]; S. aureus ATCC 33591 resistant, value in parentheses, MHA, 18 h 37°C, 99.9% reduction",≥ 50 µM
same,MBC as a function of the MBC of the tetrameric peptide,"[1]; S. aureus resistant strain, from concentrations in μg/mL",1.9 x MBC
same,MBC,"[2]; ATCC 700603, 18 h",100 µM
same,MBC,"[2]; K. pneumoniae ATCC 700603 resistant, MHA, 18 h 37°C, 99.9% reduction",220 µg/mL
same,MBC as a function of the MBC of the tetrameric peptide,"[2]; K. pneumoniae resistant strain, from concentrations in μg/mL",1.9 x MBC
same,MBC,"[3]; ATCC 25923, 18 h",50 µM
same,MBC,"[3]; S. aureus ATCC 25923 sensitive, MHA, 18 h 37°C, 99.9% reduction, average of four independent experiments",110 µg/mL
same,MBC,"[3]; S. aureus ATCC 25923 sensitive, MHA, 18 h 37°C, 99.9% reduction, average of four independent experiments, listed as dimeric",≥ 110 µg/mL
same,MBC,"[3]; S. aureus ATCC 25923 sensitive, value in parentheses, MHA, 18 h 37°C, 99.9% reduction",≥ 50 µM
same,MBC as a function of the MBC of the tetrameric peptide,"[3]; S. aureus sensitive strain, from concentrations in μg/mL",1.9 x MBC
same,MBC,"[4]; ATCC 13883, 18 h",25 µM
same,MBC,"[4]; K. pneumoniae ATCC 13883 sensitive, MHA, 18 h 37°C, 99.9% reduction",55 µg/mL
same,MBC as a function of the MBC of the tetrameric peptide,"[4]; K. pneumoniae sensitive strain, from concentrations in μg/mL",0.5 x MBC
same,MIC,"[5]; ATCC 33591, 24 h",25 µM
same,MIC,"[5]; S. aureus ATCC 33591 resistant, MHB, 24 h 37°C, OD620, >90% inhibition, average of four independent experiments in duplicate",55 µg/mL
same,MIC,"[5]; S. aureus ATCC 33591 resistant, MHB, 24 h 37°C, OD620, >90% inhibition, average of four independent experiments in duplicate, listed as dimeric",≥ 55 µg/mL
same,MIC,"[5]; S. aureus ATCC 33591 resistant, value in parentheses, MHB, 24 h 37°C, OD620, >90% inhibition",≥ 25 µM
same,MIC,"[6]; ATCC 700603, 24 h",12.5 µM
same,MIC,"[6]; K. pneumoniae ATCC 700603 resistant, MHB, 24 h 37°C, OD620, >90% inhibition, average of four independent experiments in duplicate",27 µg/mL
same,MIC,"[6]; K. pneumoniae ATCC 700603 resistant, MHB, 24 h 37°C, OD620, >90% inhibition, average of four independent experiments in duplicate, listed as dimeric",≥ 27 µg/mL
same,MIC,"[6]; K. pneumoniae ATCC 700603 resistant, value in parentheses, MHB, 24 h 37°C, OD620, >90% inhibition","≥ 12,5 µM"
same,concentration at which antibacterial activity was exhibited (dose-response profile),"[6]; K. pneumoniae resistant strain, Figure 3","≤ 27 μg/mL and ≤ 12,5 μM"
same,MIC,"[7]; ATCC 25923, 24 h",6.25 µM
same,MIC,"[7]; S. aureus ATCC 25923 sensitive, MHB, 24 h 37°C, OD620, lowest concentration inhibiting growth >90%, average of four independent experiments in duplicate",14 µg/mL
same,MIC,"[7]; S. aureus ATCC 25923 sensitive, MHB, 24 h 37°C, OD620, lowest concentration inhibiting growth >90%, average of four independent experiments in duplicate, listed as dimeric",≥ 14 µg/mL
same,MIC,"[7]; S. aureus ATCC 25923 sensitive, value in parentheses, MHB, 24 h 37°C, OD620, >90% inhibition, average of four independent experiments in duplicate",≥ 6.25 µM
same,concentration at which antibacterial activity was displayed (dose-response profile),"[7]; S. aureus sensitive strain, Figure 2",≥ 14 μg/mL and ≥ 6.25 μM
same,MIC,"[8]; ATCC 13883, 24 h",12.5 µM
same,MIC,"[8]; K. pneumoniae ATCC 13883 sensitive, MHB, 24 h 37°C, OD620, >90% inhibition, average of four independent experiments in duplicate",27 µg/mL
same,MIC,"[8]; K. pneumoniae ATCC 13883 sensitive, MHB, 24 h 37°C, OD620, >90% inhibition, average of four independent experiments in duplicate, listed as dimeric",≥ 27 µg/mL
same,MIC,"[8]; K. pneumoniae ATCC 13883 sensitive, value in parentheses, MHB, 24 h 37°C, OD620, >90% inhibition","≥ 12,5 µM"
same,concentration at which antibacterial activity was exhibited (dose-response profile),"[8]; K. pneumoniae sensitive strain, Figure 3","≤ 27 μg/mL and ≤ 12,5 μM"

# — publication PMC6015718, “Effect of Polyvalence on the Antibacterial Activity of a Synthetic Peptide Derived from Bovine Lactoferricin against Healthcare-Associated Infectious Pathogens” (BioMed Research International, 2018)
